# Measurements: patent publication US20100168165A1, “METHOD OF TREATING DISEASE INVOLVING MYELIN AND/OR AXONAL LOSS” (The United States of America, as represented by the …, priority 2007, published 2010)
# Where “and” joins values, the source holds several entries; their conditions need not be identical. Identical values can stand only once.
# Tests used:
# [1] = system: actively induced chronic progressive EAE; assay: Actively induced chronic progressive EAE (MOG35-55 immunization), Tempol food from 14 days before immunization; format: in vivo, SJL mice
# Method: (§1) SJL mice are placed on Tempol-containing food two weeks prior to the initiation of experimental autoimmune encephalomyelitis (EAE) either by active immunization with myelin antigens or the transfer of activated encephalitogenic T cells. Animals receive bacon-flavored control food and Tempol-containing food ad libitum (Bio-Serv, Frenchtown, N.J.). The composition of the control food and Tempol-containing food is identical with exception to the addition of Tempol at a concentration of 10 mg/gram of food (Mitchell et al., Free Radic. Biol. Med., 34: 93-102 (2003)). Bacon flavored food is used to mask the taste of Tempol. All experiments with animals are carried out according to protocols approved by and on file with the National Institute of Neurological Disorders and Stoke (NINDS) Animal Care and Use Committee (ACUC).
# (§2) For the EAE induction, all animals are female, 8-10 weeks of age at time of myelin protein immunization. Animals are immunized for active EAE induction with 200 μg of MOG35-55 peptide in 4 mg/ml H37Ra Mycobacterium/IFA with 200 ng pertussis toxin delivered intraperitoneally (IP) on days 0 and 2. For passive EAE induction, SJL animals are immunized with 75 μg of PLP139-151 peptide in 1 mg/ml H37Ra Mycobacterium/IFA (Difco, Detroit, Mich.). Ten days later, axillary and inguinal lymph nodes are removed and placed into culture with 5 μg/ml of PLP139-151 peptide. After 3 days, activated T cells are counted and 2 million blasted T cells are transferred IP to each SJL recipient mouse.
# Mice are placed on control- or Tempol-containing food 14 days (T-14) prior to immunization with MOG peptide for EAE induction (day 0=date of immunization). Mice are blindly evaluated for onset of disease and clinical scores are assigned following examination as follows: 0=no clinical signs; 1=flaccid tail; 2=paresis of one or both hind legs; 3=paralysis of one or both hind legs; 4=quadriparesis or quadriparalysis; 5=moribund. The cumulative score represents the mean of the summation of single scores recorded in each mouse over days 0 (day of immunization) to day 30 post disease induction. In this study, mice that are fed Tempol generate myelin antigen-specific T cells which are unable to cause paralytic disease in immunized mice.
# [2] = system: passively induced chronic progressive EAE; assay: Passively induced chronic progressive EAE (transfer of PLP139-151-activated encephalitogenic T cells); format: in vivo, SJL mice
# Method: as §1, §2
# Mice are placed on control- or Tempol-containing food 14 days (T-14) prior to receipt of encephalitogenic T cells (day 0=date of T cell transfer). Mice are blindly evaluated for onset of disease and clinical scores were assigned following examination as follows: 0=no clinical signs; 1=flaccid tail; 2=paresis of one or both hind legs; 3=paralysis of one or both hind legs; 4=quadriparesis or quadriparalysis; 5=moribund. The cumulative score represents the mean of the summation of single scores recorded in each mouse over days 0 (day of T cell transfer) to day 48 post disease induction. PLP-specific T cells are capable of causing severe paralytic disease in the brain and spinal cord of control fed mice, yet Tempol-fed mice are protected showing decreased incidence of disease as well as reduced severity.
# SJL animals are induced for disease by the passive transfer of encephalitogenic T cells as described in Example 1. Animals are placed on either Tempol or control feed at either (i) 2 weeks prior to transfer, (ii) at the time of transfer, or (iii) at the onset of disease.
# MOG-induced active EAE = assay: MOG-induced active EAE, switched to Tempol feed after onset of clinical signs; format: in vivo, mice; conditions: feed switched once 60% of animals show at least grade 1; FIG. 4
# Method: as §2
# neurofilament H = assay: Spinal cord neurofilament H in passive EAE animals; format: in vivo, SJL mice; design: cumulative disease score / peak disease score: scale not given here
# Method: SJL animals are induced for disease by the passive transfer of encephalitogenic T cells as described in Example 1. Animals are placed on either Tempol or control feed. The spinal cords of the animals are analyzed 90 days post transfer.
# Neurofilament staining is representative of the presence of axons. During autoimmune or demyelinating processes, the loss of neurofilament H has been associated with axonal loss.
# [3] = system: edema associated with inflammation and tissue damage; assay: Spinal cord T2 relaxation times (edema) in passive EAE; format: in vivo, SJL mice
# Method: SJL animals are induced for disease by the passive transfer of encephalitogenic T cells as described in Example 1. Animals are placed on either Tempol or control feed. In a spinal cord histogram, T2 relaxation times typically increase due to inflammation and edema during CNS autoimmunity/disease during EAE. […] In the control-fed animals, the spinal cord T2 relaxation times shifted to higher values due to edema and inflammation.
# The average T2 relaxation times are measured for SJL passively-induced EAE animals on Tempol 2 weeks prior to T cell transfer. Five scans are collected per animal, which are pooled from: 2 control animals (10 total), 4 control-fed EAE animals (20 total), and 4 Tempol-fed EAE animals (20 total).
# inflammatory infiltrates = assay: Inflammatory infiltrate scoring of spinal cords at peak disease, passive EAE; format: in vivo, mice; conditions: 5 animals per group, 11 cord levels, scale 1-5; FIG. 8
# Method: Animals induced passively for EAE with PLP-specific T cells are examined at peak disease for assessment of inflammatory infiltrates. The spinal cords from 5 animals per group (control-fed and Tempol-fed) are examined at 11 levels spanning the entire cord and assessed according to the following scale and an average inflammatory score is calculated per animal. Degree of inflammation: 1=1-2 mild infiltrates, little to no infiltration; 2=3+ infiltrates, +/− infiltration; 3=1-2 moderate infiltrates, 1-2 mild little/mild infiltrates; 4=3+ moderate infiltrates, or 1 severe/broad with or without mild infiltrates, extensive infiltration to parenchyma present; 5=2+ severe/broad parenchyma infiltrative, with or without additional mild/moderate associated infiltrates to parenchyma.
# leukocytic infiltration = assay: Leukocyte count by flow cytometry in actively induced EAE; format: in vivo, C57BL/6J mice
# Source text: Animals are placed on either Tempol or control feed, and the number of leukocytes are counted via flow cytometry.
# myelin-specific T cells = assay: Spleen recall proliferation to myelin antigen 20 days after immunization; format: in vivo; conditions: three animals per group, pooled; FIG. 9
# Method: Animals on control or Tempol feed are immunized with a myelin antigen, and the spleens are tested 20 days later for recall to antigen. Three animals per group are tested and the results are pooled (FIG. 9).
# [4] = clinical score 0-5, Tempol food from T-14, n = 10
# [5] = individual animals, passive EAE
structure (smiles),measurement,setting,value
"CC1(C)CC(O)CC(C)(C)N1[O] [Tempol, 4-hydroxy-2,2,6,6-tetramethylpiperidine-1-oxyl]",Effect on incidence and severity of EAE,[1]; Table 1 and FIG. 1,reduces the incidence and severity
same,Incidence of disease,"[1]; Tempol 10 mg/gram of food ad libitum from 14 days prior to MOG immunization, n = 10",.30
same,Average peak disease severity,[1]; [4],0.83
same,Average cumulative disease score,"[1]; clinical score 0-5 summed over day 0 to day 30, Tempol food from T-14, n = 10",2.05
same,Effect on incidence and severity of EAE,[2]; Table 2 and FIG. 2,reduces the incidence and severity
same,Incidence of disease,"[2]; Tempol 10 mg/gram of food from 14 days prior to T cell transfer, n = 10",.70
same,Average peak disease severity,[2]; [4],2.81
same,Average cumulative disease score,"[2]; clinical score 0-5 summed over day 0 to day 48, Tempol food from T-14, n = 10",33.9
same,Clinical sign at peak disease,[2]; control animals: complete hind limb paralysis with forelimb weakness,hind limb paresis
same,Severity of clinical symptoms and cumulative disease score by time of administration,"[2]; feed started 2 weeks prior to transfer, at transfer, or at disease onset, FIG. 3",reduces the severity of clinical symptoms and the cumulative disease score regardless of the time of administration
same,Time after feed administration until disease severity drops off,MOG-induced active EAE,≤ 2 days
same,cumulative disease score,neurofilament H; [5],14 and 103.25 and 83.75 and 105.25 and 28.25 and 83 and 0.5 and 87.25 and 28.75
same,peak disease score,neurofilament H; [5],2.25 (2×) and 3.5 (4×) and 2.75 and 2.5 and 0
same,average (relative amount of spinal cord neurofilament H),"neurofilament H; individual animals, spinal cords analyzed 90 days post transfer",0.9652 and 0.4487 and 0.7 and 0.3589 and 0.8499 and 0.3415 and 0.9171 and 0.9553 and 1.104
same,Preservation of neurofilament H,"neurofilament H; versus control feed, FIG. 5 and Table 3",greater preservation of neurofilament H
same,Edema and inflammation by average T2 relaxation times,"[3]; Tempol 2 weeks prior to T cell transfer, to levels observed in healthy animals, FIG. 7","limits (e.g., reduces) the edema and inflammation"
same,"T2 relaxation times, spinal cord histogram",[3]; versus control-fed EAE animals,lower T2 relaxation times
same,Inflammatory infiltrates at peak disease,inflammatory infiltrates,limits the inflammatory infiltrates
same,Inflammatory infiltrates at peak disease,"leukocytic infiltration; actively induced EAE, Table 4",limits the inflammatory infiltrates
same,Microglial activation (upregulation of MHC class II expression),leukocytic infiltration; compared to animals on control feed,reduces the degree of microglial activation
same,% B cell,"leukocytic infiltration; flow cytometry, peak disease",1.3% and 2.8%
same,% CD3,"leukocytic infiltration; flow cytometry, peak disease",11.1% and 11.2%
same,% mac/gran,"leukocytic infiltration; flow cytometry, peak disease",10.1% and 20.2%
same,% microglia,"leukocytic infiltration; flow cytometry, peak disease",68.5% and 55.6%
same,% total CD45 hi,"leukocytic infiltration; flow cytometry, peak disease",21.0% and 33.8%
same,CD4:CD8 ratio,"leukocytic infiltration; flow cytometry, peak disease",1.7 and 1.5
same,Cell #,"leukocytic infiltration; flow cytometry, peak disease",1.0 ×10^6
same,Generation of myelin-specific T cells by proliferative responses,myelin-specific T cells,does not reduce the generation of myelin-specific T cells
